Reference: patent US5719153A, “5H,8H-2-oxa-1,3,5,8-tetraaza-cyclopenta[b]-naphthalene-6,7-diones” (American Home Products Corporation, priority 1996, dated 1998)

Biological target: AMPA receptor
Assay: displacement of [^3 H]-AMPA from its binding site on rat forebrain membranes
Conditions: 5 nmolar [^3 H]AMPA, 100 mmolar KSCN, 4° C., 1 hr
Protocol: A representative compound of this invention was evaluated in a standard pharmacological test procedure to determine its ability to displace [^3 H]-α-amino-3-hydroxy-5-methylisoxazole-4-propionic acid (AMPA) from its binding site on rat forebrain membranes as described in a modified assay by D. E. Murphy, E. W. Snowhill and M. Williams (Characterization of quisqualate recognition sites in rat brain tissue using DL-[^3 H]α-amino-3-hydroxy-5-methylisoxazole-4-propionic acid (AMPA) and a filtration assay, Neurochemical Research, Vol. 12, No.9, 1987, pp. 775-782). Briefly, rats were decapitated and their forebrains (whole brain minus brain stem and cerebella) were homogenized in a volume (ml) of ice cold 0.32M sucrose equivalent to 15 times the forebrain weight (gram). The homogenate was centrifuged at 1,000 g for 10 minutes and the supernatant was recentrifuged at 20,000 g for 20 min. The pellet was resuspended in ice-cold distilled water and centrifuged at 8,000 g for 20 min. The supernatant and buffy coat were centrifuged at 48,000 g for 10 min. The pellet was then resuspended in the original volume of ice-cold 50 mmolar TRIS HCl (pH 7.4) and centrifuged at 48,000 g for 10 min. The pellet was resuspended in 50 mmolar TRIS HCl containing 0.04% Triton X-100 and the homogenate was incubated at 37° C. for 30 min. The homogenate was then centrifuged at 48,000 g for 10 min. […]

## O=c1[nH]c2cc3no[n+]([O-])c3cc2[nH]c1=O [Example 1, 1-Oxy-5H,8H-2-oxa-1,3,5,8-tetraaza-cyclopenta[b]naphthalene-6,7-dione]
  IC50: 7.6 µM
